Test results as given in US8569265B2, “Deuterated analogs of (4S)-4-ethyl-4-hydroxy-11-[2- (trimethylsilyl)ethyl]-1H-pyrano[3′, 4′:6,7] indolizino [1,2-b]quinoline-3,14(4H, 12H)-dione and methods of use thereof” (BioNumerik Pharmaceuticals, Inc., priority 2011, dated 2013).
Read-outs that look alike come from different tables or passages of the source.

Assays:
[1] = test system: wild-type human ovarian cancer cells (A2780/WT); assay: Sulforhodamine B (SRB) cytotoxicity assay, A2780/WT; assay type: cell-based; details: for IC50: Homo sapiens, A2780/WT, 2 hour drug treatments; for IC50 values in words (inhibition of cell growth): wild-type (A2780/WT) ovarian cancer cells
From the text: (§1) The sulforhodamine B (SRB) assay was used to assess cytotoxicity and absorbance at 570 nm (A570) in order to calculate the percentage of cell control (or percent cell survival) for wild-type human ovarian cancer cells (A2780/WT) and doxorubicin-resistant human ovarian cancer cells (A2780/DX5) treated with BNP1350, BNP10120 (a di-deuterated analog of BNP1350) and BNP10121 (a tetra-deuterated analog of BNP1350).
(§2) Roswell Park Memorial Institute (RPMI 1640) medium, fetal bovine serum (FBS), and L-glutamine were purchased from Gibco BRL. Drugs were dissolved in sterile dimethylsulfoxide (DMSO), from American Type Culture Collection (ATCC) for stock solutions (2.5 to 5.0 mM). Subsequent dilutions were made using cell culture medium (prior to adding the drug to cells). SRB was purchased from Sigma and dissolved in 1.0 percent acetic acid. Trichloroacetic acid was purchased from VWR International. BNP1350, BNP10120 (a di-deuterated analog of BNP1350) and BNP10121 (a tetra-deuterated analog of BNP1350) were synthesized and purified by BioNumerik Pharmaceuticals, Inc.
(§3) Cells were manipulated in a Class IIA/B3 Biological Safety Cabinet (Forma Scientific) and maintained at 37° C. in a humidified atmosphere containing 5% CO2 in a water-jacketed cell culture incubator (Forma Scientific). Cells were counted using a Coulter-Z1 counter (Beckman-Coulter). Following drug treatment, plates were washed using a Biomek 2000 station (Beckman) and, following exposure to SRB dye, plates were washed using an automated plate washer (Model EL404, Bio-Tek Instruments). Percentage of control was correlated to A570 values and determined using a Model EL800 plate reader (Bio-Tek Instruments).
(§4) Wild-type human ovarian cancer cells (A2780/WT) and doxorubicin-resistant human ovarian cancer cells (A2780/DX5) were cultured in RPMI 1640 medium supplemented with 10% fetal bovine serum and 2 mM L-glutamine, and grown in a 37° C. incubator with 5% CO2. Population doubling times for the two cell lines used in this study encompassed a total of five cell doublings corresponding to approximately 5 days for A2780/WT and A2780/DX5 cells. Both cell lines were maintained as monolayered cultures in T-25 or T-75 flasks and then seeded to microtiter plate wells for experiments described herein.
(§5) In brief, cells were seeded (500 cells/well in 100 μL total volume) into 96-well microtiter plates and allowed to attach for 24 hours prior to treatment with BNP1350, BNP10120 or BNP10121 for 2 hours. The aforementioned compounds were dissolved in DMSO for use in cytotoxicity experiments where inhibition of cell growth was measured using the SRB assay.
(§6) Following this 2 hour drug treatment, the BNP1350, BNP10120 and BNP10121 were removed, cells were washed with drug-free media (200 μL) and then drug-free media (200 μL) was added to the cells and cells were allowed to continue growing at 37° C. with 5% CO2 before the SRB assay was performed (total experiment time from time of seeding was 5 days, during which time a total of 5 cell doublings had occurred).
(§7) Prior to SRB assays, cell viability was monitored by evaluation of microtiter plate wells. Dead cells detach and float while living cells remain attached to the bottom of the cell well.
(§8) The sulforhodamine B (SRB) cytotoxicity assay (see, Skehan P, et al., New colorimetric cytotoxicity assay for anticancer-drug screening. J. Natl. Cancer Inst. 82:1107-1112 (1990)) was used to determine the cytotoxic effects of BNP1350, BNP10120 or BNP10121 on cell growth in vitro. Briefly, after the medium was aspirated from individual plate wells, trichloroacetic acid (100 μL of 10.0% solution) was added to each well, and the plates were incubated at 4° C. for at least 1 hour. The plates were washed five-times with water using an automated microplate washer (Model EL 404, Bio-Tek Instruments), SRB solution (100 μL of 0.4 grams SRB dissolved in 100 mL 1.0 percent acetic acid) was added, and plates remained at room temperature for 15 minutes. […]

[2] = test system: doxorubicin-resistant human ovarian cancer cells (A2780/DX5); assay: Sulforhodamine B (SRB) cytotoxicity assay, A2780/DX5; assay type: cell-based; details: for IC50: Homo sapiens, A2780/DX5, 2 hour drug treatments; for IC50 values in words (inhibition of cell growth): doxorubicin resistant (A2780/DX5) ovarian cancer cells
From the text: as §1, §2, §3, §4, §5, §6, §7, §8

[3] = test system: malignant melanoma and carcinoma cells (colon carcinoma, glioblastoma, and small lung cell cancer cells); details: cited from earlier work
[4] = test system: PHA-stimulated lymphocytes and normal glial cells; details: 90% D2O; cited from earlier work
[5] = clinical trial; cited from earlier work
[6] = average of Test 1 and Test 2, read-out: IC50 Average

[2H]C1([2H])c2c(nc3ccccc3c2CC[Si](C)(C)C)-c2cc3c(c(=O)n21)COC(=O)[C@]3(O)CC [BNP10120, (4S)-12,12-Dideutero-4-ethyl-4-hydroxy-11-[2-(trimethylsilyl)ethyl]-1H-pyrano[3′,4′:6,7]indolizino[1,2-b]quinoline-3,14(4H,12H)-dione]
IC50 [1, 6]: 2.6 nM | IC50 ([1]; read-out: IC50 Test 1): 3.5 nM | IC50 ([1]; read-out: IC50 Test 2): 1.6 nM | IC50 values in words (inhibition of cell growth) [1]: nanomolar | IC50 [2, 6]: 8.5 nM | IC50 ([2]; read-out: IC50 Test 1): 9.9 nM | IC50 ([2]; read-out: IC50 Test 2): 7.1 nM | IC50 values in words (inhibition of cell growth) [2]: nanomolar

[2H]C([2H])(c1c2c(nc3ccccc13)-c1cc3c(c(=O)n1C2)COC(=O)[C@]3(O)CC)C([2H])([2H])[Si](C)(C)C [BNP10121, (S)-4-Ethyl-4-hydroxy-11-[1,1,2,2-tetradeutero-2-(trimethylsilyl)ethyl]-1H-pyrano[3′,4′:6,7]indolizino[1,2-b]quinoline-3,14(4H,12H)-dione]
IC50 [1, 6]: 6.1 nM | IC50 ([1]; read-out: IC50 Test 1): 6.1 nM | IC50 ([1]; read-out: IC50 Test 2): 6 nM | IC50 values in words (inhibition of cell growth) [1]: nanomolar | IC50 [2, 6]: 11.7 nM | IC50 ([2]; read-out: IC50 Test 1): 12 nM | IC50 ([2]; read-out: IC50 Test 2): 11.3 nM | IC50 values in words (inhibition of cell growth) [2]: nanomolar

CC[C@@]1(O)C(=O)OCc2c1cc1n(c2=O)Cc2c-1nc1ccccc1c2CC[Si](C)(C)C [BNP1350, (4S)-4-Ethyl-4-hydroxy-11-[2-(trimethylsilyl)ethyl]-1H-pyrano[3′,4′:6,7]indolizino[1,2-b]quinoline-3,14(4H,12H)-dione, reference compound]
IC50 [1, 6]: 1.9 nM | IC50 ([1]; read-out: IC50 Test 1): 1.9 nM | IC50 ([1]; read-out: IC50 Test 2): 1.8 nM | IC50 values in words (inhibition of cell growth) [1]: nanomolar | IC50 [2, 6]: 7.3 nM | IC50 ([2]; read-out: IC50 Test 1): 7.7 nM | IC50 ([2]; read-out: IC50 Test 2): 6.9 nM | IC50 values in words (inhibition of cell growth) [2]: nanomolar

[2H]O[2H] [D2O]
cells killed ([3]; 90% D2O, malignant melanoma and carcinoma cells): 70% | viable fraction of malignant cells ([3]; 9 days of treatment with 90% D2O): about 0.1% | cells killed [4]: 5%

[2H]C([2H])([2H])Oc1ccc(C(CN(C([2H])([2H])[2H])C([2H])([2H])[2H])C2(O)CCCCC2)cc1 (centres unmarked) [SD-254]
rate of metabolism relative to Effexor [5]: half as fast | time after which pharmacologically-effective levels of the drug were maintained [5]: 24 hours
